These results are taken from US20250263408A1 (Uniquest Pty Ltd, priority 2022, published 2025).

A word on the EC50: it is the concentration needed to bring the measured effect to its halfway point. A higher EC50 goes with a need for much substance.

For experiment [1], the target named is T1, Ba/F3-Syk cells (Homo sapiens, UniProt P43405).
T1 construct: fused on or other part: Possible but unprinted fusion partner: TEL (ETV6), the usual partner for Ba/F3 lines transformed by Syk; Nothing on a partner is printed
Description: Ba/F3 Proliferation Assay, Ba/F3-Syk cells (Resazurin). Conditions: 48-hour incubation. Format: cell-based. Here is the method:
(§1) Ba/F3-Syk and Ba/F3-WT (wild type) cells were maintained at ≤1×10^6 cell/mL in RPMI (Life Technologies) with 10% FBS at 37° C. and 5% CO2 for a maximum of four weeks. Ba/F3-WT additionally contained 2 ng/mL mIL-3 (R&D Systems) to induce cellular growth. Cells were counted and dispensed at 5000 cells/well using a Multidrop Liquid Dispenser in a volume of 45 μL into black 384-well TC treated plates (Greiner) and incubated for four hours in complete media (+mIL-3 for Ba/F3-WT). Compounds were serially diluted in 100% DMSO, prior to an intermediate dilution in RPMI media. 5 μL of compound (0.4% final DMSO) was added to the cells, followed by a 48-hour incubation period. 5 μL of Resazurin (60 μM final) was then added and cells were incubated at 37° C. for three hours, before fluorescence (λex530/λem585) was measured using an Ensight Multimode Plate Reader (Perkin Elmer).
(In general: The colour change of resazurin is a common sign of viable cells or microbes.)

Experiment [2] has as its system Ba/F3-WT (wild type) cells. Description: Ba/F3 Proliferation Assay, Ba/F3-WT (wild type) cells with mIL-3 (Resazurin). Conditions: Mus musculus, BaF3, 48 h, Ba/F3-WT cells +mIL-3, 48-hour incubation. Format: cell-based. The procedure: as §1

For `Cc1cc(-c2cc3ncccc3c(OC[C@@H]3CNCCO3)n2)c(C)s1` [Compound 2.37, 7-(2,5-dimethylthiophen-3-yl)-5-{[(2S)-morpholin-2-yl]methoxy}-1,6-naphthyridine], the EC50 in experiment [1] was 1.23 µM; in experiment [2], 2.83 µM.

Turning to `Cn1cccc1-c1cc2ncccc2c(OC[C@@H]2CNCCO2)n1` [Compound 2.38, 7-(1-methyl-1H-pyrrol-2-yl)-5-{[(2S)-morpholin-2-yl]methoxy}-1,6-naphthyridine], the figures for the EC50 in experiment [1] and in experiment [2] were 1.45 µM and more than 10 µM, respectively.

For `Clc1cc(-c2cc3ncccc3c(OC[C@@H]3CNCCO3)n2)cs1` [Compound 2.39, 7-(5-chlorothiophen-3-yl)-5-{[(2S)-morpholin-2-yl]methoxy}-1,6-naphthyridine], the EC50 in experiment [1] was 0.243 µM; in experiment [2], 1.7 µM.

Turning to `Cc1cc(-c2cc3ncccc3c(OC[C@@H]3CNCCO3)n2)c(C)n1C` [Compound 2.40, 5-{[(2S)-morpholin-2-yl]methoxy}-7-(1,2,5-trimethyl-1H-pyrrol-3-yl)-1,6-naphthyridine], the results for the EC50 in experiment [1] and in experiment [2] were 0.645 µM and more than 10 µM, respectively.

`Cn1cc(-c2cc3ncccc3c(OCC3CNCCCO3)n2)cn1` (stereo not drawn) [Compound 2.41, 7-(1-methyl-1H-pyrazol-4-yl)-5-[(1,4-oxazepan-2-yl)methoxy]-1,6-naphthyridine]: the figures for the concentration for a half-maximal effect (EC50) in experiment [1] and in experiment [2] were 0.127 µM and 2.33 µM, respectively.

Turning to `CC(C)(C)n1cc(-c2cc3ncccc3c(OCC3CNCCCO3)n2)cn1` (stereo not drawn) [Compound 2.47, 7-(1-tert-butyl-1H-pyrazol-4-yl)-5-[(1,4-oxazepan-2-yl)methoxy]-1,6-naphthyridine], the EC50 in experiment [1] turned out to be 0.048 µM; in experiment [2] it was 3.27 µM.

Regarding `Cn1ccc(-c2cc3ncccc3c(OCC3CNCCCO3)n2)c1` (stereo not drawn) [Compound 2.48, 7-(1-methyl-1H-pyrrol-3-yl)-5-[(1,4-oxazepan-2-yl)methoxy]-1,6-naphthyridine], the figures for the EC50 in experiment [1] and in experiment [2] were 0.119 µM and 4.06 µM, respectively.

Take `Cn1cc(-c2cc3ncccc3c(OC[C@@H]3CNCCCO3)n2)cn1` [Compound 2.50, 7-(1-methyl-1H-pyrazol-4-yl)-5-{[(2S)-1,4-oxazepan-2-yl]methoxy}-1,6-naphthyridine]: the figures for the EC50 in experiment [1] and in experiment [2] were 0.151 µM and 6.18 µM, respectively.

Regarding `CC(C)n1cc(-c2cc3ncccc3c(OC[C@@H]3CNCC4(CCC4)O3)n2)cn1` [Compound 2.56, 5-{[(6S)-5-oxa-8-azaspiro[3.5]nonan-6-yl]methoxy}-7-[1-(propan-2-yl)-1H-pyrazol-4-yl]-1,6-naphthyridine], the EC50 in experiment [1] was found to be 0.0329 µM; in experiment [2], 1.46 µM.

Take `CC(C)(C)n1cc(-c2cc3ncccc3c(OC[C@H]3CNCCCO3)n2)cn1` [Compound 2.59, 7-(1-tert-butyl-1H-pyrazol-4-yl)-5-{[(2R)-1,4-oxazepan-2-yl]methoxy}-1,6-naphthyridine]: the EC50 was determined as 0.0589 µM in experiment [1] and 0.985 µM in experiment [2].

On to `CC(C)(C)n1ccc(-c2cc3ncccc3c(OC[C@@H]3CNCC4(CC4)O3)n2)c1` [Compound 2.61, 7-(1-tert-butyl-1H-pyrrol-3-yl)-5-{[(5S)-4-oxa-7-azaspiro[2.5]octan-5-yl]methoxy}-1,6-naphthyridine], for which the EC50 in experiment [1] was found to be 0.0097 µM; in experiment [2], 2.61 µM.

Regarding `CC(C)n1cc(-c2cc3ncccc3c(OC[C@@H]3CNCC4(CC4)O3)n2)cn1` [Compound 2.62, 5-{[(5S)-4-oxa-7-azaspiro[2.5]octan-5-yl]methoxy}-7-[1-(propan-2-yl)-1H-pyrazol-4-yl]-1,6-naphthyridine], the EC50 in experiment [1] was 0.0314 µM; in experiment [2], 1.29 µM.

For the compound `C[C@H](Oc1nc(-c2ccn(C)c2)cc2ncccc12)[C@@H]1CNCC(C)(C)O1` [Compound 2.64, 5-[(1S)-1-[(2S)-6,6-dimethylmorpholin-2-yl]ethoxy]-7-(1-methyl-1H-pyrrol-3-yl)-1,6-naphthyridine], the EC50 in experiment [1] is 0.253 µM; in experiment [2] it was more than 10 µM.

In the case of `C[C@@H](Oc1nc(-c2ccn(C)c2)cc2ncccc12)[C@@H]1CNCC(C)(C)O1` [Compound 2.65, 5-[(1R)-1-[(2S)-6,6-dimethylmorpholin-2-yl]ethoxy]-7-(1-methyl-1H-pyrrol-3-yl)-1,6-naphthyridine], the half-maximal effective concentration (EC50) in experiment [1] is 0.0117 µM; in experiment [2], 2.54 µM.

With `C[C@@H](Oc1nc(-c2ccn(C(C)(C)C)c2)cc2ncccc12)[C@@H]1CNCCO1` [Compound 2.68, 7-(1-tert-butyl-1H-pyrrol-3-yl)-5-[(1R)-1-[(2S)-morpholin-2-yl]ethoxy]-1,6-naphthyridine], the EC50 in experiment [1] amounted to 0.0139 µM; in experiment [2] it was 4.37 µM.

For `CC(C)n1cc(-c2cc3ncccc3c(OC[C@@H]3CNCCCO3)n2)cn1` [Compound 2.70, 5-{[(2S)-1,4-oxazepan-2-yl]methoxy}-7-[1-(propan-2-yl)-1H-pyrazol-4-yl]-1,6-naphthyridine], the values for the EC50 in experiment [1] and in experiment [2] were 0.0191 µM and 1.54 µM, respectively.

Regarding `Cn1cc(-c2cc3ncccc3c(OC[C@H]3CN[C@@H]4CCC[C@@H]4O3)n2)cn1` [Compound 2.72, 5-{[(2R,4aR,7aS)-octahydrocyclopenta[b][1,4]oxazin-2-yl]methoxy}-7-(1-methyl-1H-pyrazol-4-yl)-1,6-naphthyridine], the half-maximal effective concentration (EC50) in experiment [1] came out at 0.266 µM; in experiment [2], 1.9 µM.

In the case of `Cn1cc(-c2cc3ncccc3c(OC[C@@H]3CN[C@H]4CCC[C@H]4O3)n2)cn1` [Compound 2.73, 5-{[(2S,4aS,7aR)-octahydrocyclopenta[b][1,4]oxazin-2-yl]methoxy}-7-(1-methyl-1H-pyrazol-4-yl)-1,6-naphthyridine], the values for the EC50 in experiment [1] and in experiment [2] were 0.0322 µM and 3.38 µM, respectively.

As to `C[C@H]1CNC[C@@H](COc2nc(-c3cnn(C)c3)cc3ncccc23)O1` [Compound 2.74, 7-(1-methyl-1H-pyrazol-4-yl)-5-{[(25,6S)-6-methylmorpholin-2-yl]methoxy}-1,6-naphthyridine], the concentration giving a half-maximal response (EC50) in experiment [1] came to 0.109 µM; in experiment [2] it was 2.89 µM.

For the compound `C[C@H]1CNC[C@@H](COc2nc(-c3ccn(C)c3)cc3ncccc23)O1` [Compound 2.75, 7-(1-methyl-1H-pyrrol-3-yl)-5-{[(2,6S)-6-methylmorpholin-2-yl]methoxy}-1,6-naphthyridine], the EC50 amounted to 0.0678 µM in experiment [1] and 3.92 µM in experiment [2].

Turning to `C[C@@H]1CNC[C@@H](COc2nc(-c3ccn(C)c3)cc3ncccc23)O1` [Compound 2.77, 7-(1-methyl-1H-pyrrol-3-yl)-5-{[(2S,6R)-6-methylmorpholin-2-yl]methoxy}-1,6-naphthyridine], the results for the EC50 in experiment [1] and in experiment [2] were 0.0427 µM and 5.32 µM, respectively.

As to `O=C1CCn2cc(-c3cc4ncccc4c(OC[C@@H]4CNCCO4)n3)cc21` [Compound 2.78, 6-(5-{[(2S)-morpholin-2-yl]methoxy}-1,6-naphthyridin-7-yl)-2,3-dihydro-1H-pyrrolizin-1-one], the EC50 is 0.147 µM in experiment [1] and 4.85 µM in experiment [2].

For `Cn1ccc(-c2cc3ncccc3c(OC[C@@H]3CNC(C)(C)CCO3)n2)c1` [Compound 2.79, 5-{[(2S)-5,5-dimethyl-1,4-oxazepan-2-yl]methoxy}-7-(1-methyl-1H-pyrrol-3-yl)-1,6-naphthyridine], the figures for the EC50 in experiment [1] and in experiment [2] were 0.596 µM and more than 10 µM, respectively.

Turning to `CC1(C)CNC[C@H](COc2nc(-c3cnn(C(C)(C)C)c3)cc3ncccc23)O1` [Compound 2.82, 7-(1-tert-butyl-1H-pyrazol-4-yl)-5-{[(2R)-6,6-dimethylmorpholin-2-yl]methoxy}-1,6-naphthyridine], the EC50 in experiment [1] was 0.127 µM; in experiment [2], 2.27 µM.

For `C[C@@H](Oc1nc(-c2cnn(C)c2)cc2ncccc12)[C@@H]1CNCC(C)(C)O1` [Compound 2.83, 5-[(1R)-1-[(2S)-6,6-dimethylmorpholin-2-yl]ethoxy]-7-(1-methyl-1H-pyrazol-4-yl)-1,6-naphthyridine], the EC50 was determined as 0.0342 µM in experiment [1] and 1.65 µM in experiment [2].

As to `CC(C)n1cc(-c2cc3ncccc3c(O[C@H](C)[C@@H]3CNCC(C)(C)O3)n2)cn1` [Compound 2.84, 5-[(1R)-1-[(2S)-6,6-dimethylmorpholin-2-yl]ethoxy]-7-[1-(propan-2-yl)-1H-pyrazol-4-yl]-1,6-naphthyridine], the EC50 was found to be 0.0223 µM in experiment [1] and 2.21 µM in experiment [2].

For the compound `CC(C)(C)n1cc(-c2cc3ncccc3c(OC[C@@H]3CNCC(F)(F)CO3)n2)cn1` [Compound 2.86, 7-(1-tert-butyl-1H-pyrazol-4-yl)-5-{[(2S)-6,6-difluoro-1,4-oxazepan-2-yl]methoxy}-1,6-naphthyridine], the EC50 in experiment [1] was 2.16 µM; in experiment [2], more than 10 µM.

Consider `CC1(C)CNC[C@@H](COc2nc(-c3cnn(C4(C)CCC4)c3)cc3ncccc23)O1` [Compound 2.87, 5-{[(2S)-6,6-dimethylmorpholin-2-yl]methoxy}-7-[1-(1-methylcyclobutyl)-1H-pyrazol-4-yl]-1,6-naphthyridine], for which the 50% effective concentration (EC50) in experiment [1] worked out at 0.0112 µM; in experiment [2], 1.1 µM.

For `CC1(C)CNC[C@@H](COc2nc(-c3cnn(C4(C)CC4)c3)cc3ncccc23)O1` [Compound 2.88, 5-{[(2S)-6,6-dimethylmorpholin-2-yl]methoxy}-7-[1-(1-methylcyclopropyl)-1H-pyrazol-4-yl]-1,6-naphthyridine], the EC50 was 0.0176 µM in experiment [1] and 1.56 µM in experiment [2].

Consider `CC1(C)CNC[C@@H](COc2nc(-c3cnn(C4(C)CCOC4)c3)cc3ncccc23)O1` (stereo partly drawn) [Compound 2.89], for which the concentration for a half-maximal effect (EC50) is 0.0217 µM in experiment [1] and 2.73 µM in experiment [2].
